Test systems include MOLT-4 leukemia; OVCAR-5 ovarian; COLO 205 colon; ACHN renal; HOP-92 NSCLC; HCT-116 colon; PC-3 prostate; T-47D breast; HS 578T breast; MCF7 breast.
What all share (test): growth of human tumour cells (NCI), 48 h

Experimental findings from PubChem BioAssay (NCI) are described below.

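Briefly, cells in 96-well plates were exposed to five compound concentrations for 48 h, and endpoints were estimated by linear interpolation. GI50 marks 50% less growth. TGI: concentration producing complete growth inhibition.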 A value given as a limit tells only on which side of the number the result lay.

In the case of `O=C1CCC2(c3ccccc3)Nc3ccc(Cl)cc3N12` (centres undefined), the TGI in the experiment on MOLT-4 leukemia, with OVCAR-5 ovarian, with COLO 205 colon, with ACHN renal and in the experiment on HOP-92 NSCLC was over 100 µM in each case.
As for `O=C1c2c(c3c4ccccc4[nH]c3c3[nH]c4ccccc4c23)C(=O)N1Cc1ccccc1`, the TGI was found to be 7.51 µM in the experiment with MOLT-4 leukemia; 7.61 µM in the experiment with OVCAR-5 ovarian; 8.76 µM in the experiment on HCT-116 colon; 4.66 µM with COLO 205 colon; 11 µM with ACHN renal; 5.65 µM in the experiment on HOP-92 NSCLC.
For the compound `O=S(=O)(NCCO)c1cc[c]([Sb](=[O])([OH])[OH])cc1`, the GI50 in the experiment on MOLT-4 leukemia, in the experiment on OVCAR-5 ovarian, in the experiment on HCT-116 colon, in the experiment with PC-3 prostate, with ACHN renal and with HOP-92 NSCLC was over 100 µM each time. Besides, the GI50 was over 100000 nM in the experiment on T-47D breast and over 100 µM in the experiment with HS 578T breast. The TGI with MOLT-4 leukemia, with OVCAR-5 ovarian, in the experiment with HCT-116 colon, with PC-3 prostate, with ACHN renal and in the experiment on HOP-92 NSCLC was over 100 µM in each case. Moreover, the TGI in the experiment on T-47D breast and in the experiment with HS 578T breast was over 100 µM throughout.
For the compound `CC12CC(Sc3ccccc3N1)c1ccccc1O2` (centres undefined), the TGI in the experiment on MOLT-4 leukemia worked out at 44.6 µM; in the experiment with OVCAR-5 ovarian, 33.3 µM; in the experiment on HCT-116 colon it was 29.2 µM; in the experiment with COLO 205 colon, 29.9 µM; in the experiment on ACHN renal, 31 µM; in the experiment with HOP-92 NSCLC, 35.2 µM.
As for `CCOC(=O)c1nc2cc(C(F)(F)F)ccc2[n+]([O-])c1C`, the GI50 in the experiment with MOLT-4 leukemia, in the experiment with OVCAR-5 ovarian, in the experiment with HCT-116 colon, in the experiment with PC-3 prostate, in the experiment on COLO 205 colon and with ACHN renal was over 100 µM in each case. Further, the GI50 in the experiment with MCF7 breast and in the experiment on HS 578T breast was over 100 µM in each case. The TGI with MOLT-4 leukemia, with OVCAR-5 ovarian, in the experiment with HCT-116 colon, with PC-3 prostate, with COLO 205 colon and with ACHN renal was over 100 µM throughout. Also, the TGI in the experiment with MCF7 breast and with HS 578T breast was over 100 µM throughout.
As to `C/C=C1\CCC2c3[nH]c4ccccc4c3CCN2C1` (centres undefined), the TGI in the experiment with MOLT-4 leukemia is over 100 µM; with HCT-116 colon, over 100 µM; with ACHN renal, over 100 µM; with HOP-92 NSCLC, 99.7 µM.
For the compound `CC/C(CC(=O)CCC(=O)Nc1ccc(C)c(C)c1)=N\NC(=O)C(N)=O`, the TGI with MOLT-4 leukemia, with OVCAR-5 ovarian, with HCT-116 colon, in the experiment with COLO 205 colon, in the experiment with ACHN renal and in the experiment with HOP-92 NSCLC was over 100 µM in each case.
As to `Cc1ccc(S(=O)(=O)SCc2ccccc2)cc1`, the TGI in the experiment on MOLT-4 leukemia was 6.22 µM; with OVCAR-5 ovarian it was over 100 µM; in the experiment on HCT-116 colon it was 26.4 µM; in the experiment on COLO 205 colon, 27.4 µM; in the experiment with ACHN renal it was over 100 µM; with HOP-92 NSCLC it was 60.9 µM.
As for `Cc1cc(NS(=O)(=O)c2ccc(NC(=O)COC(=O)c3cccc4c(=O)c5ccccc5[nH]c34)cc2)no1`, the TGI in the experiment on MOLT-4 leukemia, in the experiment with OVCAR-5 ovarian, with HCT-116 colon, in the experiment with COLO 205 colon, in the experiment with ACHN renal and with HOP-92 NSCLC was over 100 µM each time.
As to `O=C(Sc1sc(=S)sc1SC(=O)c1ccccc1)c1ccccc1`, the TGI with MOLT-4 leukemia, in the experiment on OVCAR-5 ovarian, in the experiment with HCT-116 colon, in the experiment with COLO 205 colon, with ACHN renal and in the experiment on HOP-92 NSCLC was over 100 µM each time.
Take `COC(=O)C(=O)C(CC(=O)Nc1cccc(C(F)(F)F)c1)C(=O)OC` (centres undefined): the TGI with MOLT-4 leukemia, in the experiment with OVCAR-5 ovarian, with HCT-116 colon, in the experiment on COLO 205 colon, in the experiment with ACHN renal and in the experiment on HOP-92 NSCLC was over 100 µM each time.
On to `COc1cc2c(cc1OC)[C@@H]([C@H](O)c1ccccc1)NCC2`, for which the TGI in the experiment with MOLT-4 leukemia, in the experiment with OVCAR-5 ovarian, with HCT-116 colon, in the experiment with COLO 205 colon, in the experiment with ACHN renal and with HOP-92 NSCLC was over 100 µM throughout.
For the compound `CSc1nc(N)c2c(n1)NC(c1ccccc1)C1CCc3ccccc3C1=N2` (centres undefined), the GI50 with MOLT-4 leukemia was 1.85 µM; with OVCAR-5 ovarian, over 100 µM; in the experiment on HCT-116 colon, 7.39 µM; in the experiment on PC-3 prostate, 2.56 µM; in the experiment with COLO 205 colon, 25.8 µM; with ACHN renal, 84.4 µM. The GI50 with HOP-92 NSCLC is 3.08 µM; with MCF7 breast, 52 µM; in the experiment on T-47D breast it was 2270 nM. The TGI is 38.8 µM in the experiment on MOLT-4 leukemia; over 100 µM in the experiment on OVCAR-5 ovarian; over 100 µM in the experiment on HCT-116 colon; over 100 µM in the experiment with PC-3 prostate; over 100 µM in the experiment on COLO 205 colon; over 100 µM in the experiment on ACHN renal. Also, the results for the TGI in the experiment on HOP-92 NSCLC, with MCF7 breast and in the experiment with T-47D breast were over 100 µM, over 100 µM and 15.7 µM, respectively.
For the compound `CCN(CC)CCC(=O)/C=C/c1ccc(C)cc1`, the TGI with MOLT-4 leukemia was determined as 38.2 µM; in the experiment on OVCAR-5 ovarian it was 32.6 µM; with HCT-116 colon it was 26.2 µM; in the experiment with COLO 205 colon it was 16.8 µM; in the experiment on ACHN renal it was 27.5 µM; with HOP-92 NSCLC, 35.4 µM.
Consider `Clc1ccc(C2=NOC3C4CCC(C4)C23)cc1` (centres undefined), for which the TGI in the experiment with MOLT-4 leukemia, in the experiment with OVCAR-5 ovarian, with HCT-116 colon, in the experiment on COLO 205 colon, in the experiment on ACHN renal and in the experiment on HOP-92 NSCLC was over 100 µM in each case.
For the compound `CCOP(=O)(CC(=O)C1=C(O)C(CCCCNC(=O)OC(C)(C)C)N(Cc2ccccc2)C1=O)OCC` (centres undefined), the TGI in the experiment on MOLT-4 leukemia, in the experiment on OVCAR-5 ovarian, in the experiment on HCT-116 colon, in the experiment with COLO 205 colon and with ACHN renal was over 100 µM in each case.
In the case of `CC(C)(C)N=CN(C=C(c1ccccc1)c1ccccc1)C1CCCCC1`, the TGI in the experiment with OVCAR-5 ovarian was over 100 µM; in the experiment on HCT-116 colon, over 100 µM; with COLO 205 colon, over 100 µM; with ACHN renal, over 100 µM; with HOP-92 NSCLC, 82.4 µM.
